# Assay results as given in patent publication US10800752B2, “Substituted naphtho[2,3-b]furans as water-soluble prodrugs for preventing and/or treating cancer” (BOSTON BIOMEDICAL, INC., priority 2015, dated 2020).
# How the values were obtained:
# [1] = Evaluation of a conversion rate to 2-acetylnaphtho[2,3-b]furan-4,9-dione in human plasma; assay type: in vitro ADME; conditions: 1 umol/L, 37° C.
# How it was run: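 Compounds at 1 umol/L incubated at 37° C in human plasma, CD1 mouse plasma or pH 7.4 phosphate buffer, sampled up to 120 minutes. After acidified acetonitrile protein removal, parent loss and conversion to 2-acetylnaphtho[2,3-b]furan-4,9-dione measured by LC-MS (ESI positive).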
# [2] = Pharmacokinetics test, intravenous administration; conditions: for Plasma Compound Concentration: Activated form 1 in plasma, 9.6 mg/kg (i.v.)
# Experimental: For water-soluble prodrugs described in the EXAMPLES, the concentration of 2-acetylnaphtho[2,3-b]furan-4,9-dione (Activated form 1) in plasma was measured. Animal species, an administration method, a method of making standard solutions, and a method of measuring the concentration in plasma are as described below.
# Animal: Seven-week-aged male CD1 (ICR) mice were used as an experimental animal.
# Administration method: A test substance was weighed, and then dissolved in 50 mmol/L glycine buffered saline (pH 2.0) to produce an administration solution. The body weight of a mouse was measured, and the prepared administration solution was intravenously administered.
# Blood collecting method: Heparin was added to a blood-collecting vessel, and blood was collected from a mouse. To the obtained blood, 46% of Citric acid was added in 1% volume. It was then centrifuged to obtain plasma. To the collected plasma, 1 mol/L HCl was added in 10% volume to produce a plasma sample. A sample obtained by adding 10% volume of 1 mol/L HCl to blank plasma was used as a blank sample.
# Making of a standard solution: One mg of a test sample was weighed, and dissolved in 10 mL of acetonitrile using a measuring flask to make a standard solution of 100 ug/mL.
# Measurement of the concentration in plasma: One hundred ug/mL of the standard solution was diluted in 50% acetonitrile solution to make calibration curve samples of target concentrations. Twenty uL of a blank sample was added to 18 uL of the calibration curve sample to make a plasma calibration curve sample. Eighteen uL of 50% acetonitrile solution was added to 20 uL of the administered plasma sample to make a sample for plasma analysis. One hundred uL of acetonitrile (containing 1% volume of 10 mol/L HCl) containing an internal standard was added to the plasma calibration curve sample and the sample for plasma analysis, respectively. It should be noted that phenytoin was used as the internal standard and its concentration was prepared in 100 nmol/L. 10 uL of each sample was analyzed with LC-MS. A calibration curve was made from a value (peak ratio) of the peak area of a test substance in MS divided by the peak area of the internal standard, and the concentrations of plasma calibration curve samples. The concentration in a sample was calculated from the peak ratio of each sample and the calibration curve.
# Solution stability test = assay type: physicochemical; conditions: for % Residual ratio: 25 umol/L
# Experimental: For Example 6, Example 11, and Example 22, the stability in each pH was measured. Test compounds at a concentration of 25 umol/L in respective buffer solutions prepared at pH 2.0, 3.0, 5.0, 7.4, and 9.0 were allowed to stand at 25° C. After 0, 3, 6, 9, 12, and 24 hours, they were measured with HPLC.
# The buffer solutions used at respective pHs are as described below. pH 2.0: 50 mmol/L glycine buffer solution pH 3.0: 50 mmol/L citrate buffer solution pH 5.0: 50 mmol/L citrate buffer solution pH 7.4: 50 mmol/L phosphate buffer solution pH 9.0: 50 mmol/L glycine buffer solution
# The measurement condition of HPLC is as described below.
# Column temperature: 40° C.
# Mobile phase: A: 0.1% trifluoroacetic acid-containing water
# Solubility test = conditions: 50 mmol/L glycine buffer solution (pH 2.0), room temperature, 24 hours shaking
# Experimental: A water-soluble prodrug was added into 50 mmol/L glycine buffer solution (pH 2.0). After shaking at room temperature for 24 hours, the mixture was filtered through a membrane filter, and then the filtrate was measured with HPLC.
# The measurement condition of HPLC is as described below. HPLC condition column: Acquity UPLC BEH C18, 1.7 um, 50×2.1 mm
# [3] = Evaluation of a conversion rate to 2-acetylnaphtho[2,3-b]furan-4,9-dione in CD1 mouse plasma; assay type: in vitro ADME; conditions: CD1 mouse plasma, 1 umol/L, 37° C.
# How it was run: (§1)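 Compounds at 1 umol/L were incubated at 37° C in human plasma, CD1 mouse plasma or pH 7.4 phosphate buffer, sampled up to 120 minutes, acid/acetonitrile-deproteinised and analysed by LC-MS (ESI positive). Conversion (%) derived from the peak area ratio of the active form to phenytoin internal standard.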
# [4] = Evaluation of a conversion rate to 2-acetylnaphtho[2,3-b]furan-4,9-dione in pH 7.4 phosphate buffer solution; assay type: physicochemical; conditions: 1 umol/L, 37° C.
# How it was run: as §1
smiles,measurement,setting,value
CC(=O)c1cc2c(OC(=O)NC[C@H](N)C(=O)O)c3ccccc3c(OC(=O)NC[C@H](N)C(=O)O)c2o1.Cl.Cl [Example 6],% Measurement value of test compound (decrease rate),"[1]; Human plasma, incubation time 120 min",0%
same,% Measurement value of test compound (decrease rate),"[1]; human plasma, incubation time 0 min",100%
same,% Measurement value of test compound (decrease rate),"[1]; human plasma, incubation time 5 min",0%
same,% Measurement value of test compound (decrease rate),"[1]; human plasma, incubation time 10 min",0%
same,% Measurement value of test compound (decrease rate),"[1]; human plasma, incubation time 30 min",0%
same,% Measurement value of test compound (decrease rate),"[1]; human plasma, incubation time 60 min",0%
same,Plasma Compound Concentration,"[2]; 0.083 hr, animal 1",4950 nM
same,Plasma Compound Concentration,"[2]; 0.083 hr, animal 2",5870 nM
same,Plasma Compound Concentration,"[2]; 0.083 hr, animal 3",5790 nM
same,Plasma Compound Concentration,"[2]; 0.083 hr, mean",5540 nM
same,Plasma Compound Concentration,"[2]; 0.5 hr, animal 1",1170 nM
same,Plasma Compound Concentration,"[2]; 0.5 hr, animal 2",1070 nM
same,Plasma Compound Concentration,"[2]; 0.5 hr, animal 3",1660 nM
same,Plasma Compound Concentration,"[2]; 0.5 hr, mean",1300 nM
same,Plasma Compound Concentration,"[2]; 1.0 hr, animal 1",530 nM
same,Plasma Compound Concentration,"[2]; 1.0 hr, animal 2",280 nM
same,Plasma Compound Concentration,"[2]; 1.0 hr, animal 3",380 nM
same,Plasma Compound Concentration,"[2]; 1.0 hr, mean",400 nM
same,Plasma Compound Concentration,"[2]; 2.0 hr, animal 1",250 nM
same,Plasma Compound Concentration,"[2]; 2.0 hr, animal 2",500 nM
same,Plasma Compound Concentration,"[2]; 2.0 hr, animal 3",410 nM
same,Plasma Compound Concentration,"[2]; 2.0 hr, mean",390 nM
same,"production of 2-acetylnaphtho[2,3-b]furan-4,9-dione (Activated form 1) (in words)",[2]; intravenously administered to mice,rapidly produced
same,stability in solution (in words),"Solution stability test; pH 2.0, 25° C.",very stable
same,% Residual ratio,"Solution stability test; pH 2.0, 25° C., 0 hr",100%
same,% Residual ratio,"Solution stability test; pH 2.0, 25° C., 3 hr",100%
same,% Residual ratio,"Solution stability test; pH 2.0, 25° C., 6 hr",100%
same,% Residual ratio,"Solution stability test; pH 2.0, 25° C., 9 hr",100%
same,% Residual ratio,"Solution stability test; pH 2.0, 25° C., 12 hr",100%
same,% Residual ratio,"Solution stability test; pH 2.0, 25° C., 24 hr",99.8%
same,stability in solution (in words),"Solution stability test; pH 3.0, 25° C.",sufficient stability
same,% Residual ratio,"Solution stability test; pH 3.0, 25° C., 0 hr",100%
same,% Residual ratio,"Solution stability test; pH 3.0, 25° C., 3 hr",99.0%
same,% Residual ratio,"Solution stability test; pH 3.0, 25° C., 6 hr",98.2%
same,% Residual ratio,"Solution stability test; pH 3.0, 25° C., 9 hr",97.5%
same,% Residual ratio,"Solution stability test; pH 3.0, 25° C., 12 hr",96.6%
same,% Residual ratio,"Solution stability test; pH 3.0, 25° C., 24 hr",93.6%
same,% Residual ratio,"Solution stability test; pH 5.0, 25° C., 0 hr",100%
same,% Residual ratio,"Solution stability test; pH 5.0, 25° C., 3 hr",27.3%
same,% Residual ratio,"Solution stability test; pH 5.0, 25° C., 6 hr",10.8%
same,% Residual ratio,"Solution stability test; pH 5.0, 25° C., 9 hr",3.6%
same,% Residual ratio,"Solution stability test; pH 5.0, 25° C., 12 hr",0%
same,% Residual ratio,"Solution stability test; pH 5.0, 25° C., 24 hr",0%
same,% Residual ratio,"Solution stability test; pH 7.4, 25° C., 0 hr",100%
same,% Residual ratio,"Solution stability test; pH 7.4, 25° C., 3 hr",0%
same,% Residual ratio,"Solution stability test; pH 7.4, 25° C., 6 hr",0%
same,% Residual ratio,"Solution stability test; pH 7.4, 25° C., 9 hr",0%
same,% Residual ratio,"Solution stability test; pH 7.4, 25° C., 12 hr",0%
same,% Residual ratio,"Solution stability test; pH 7.4, 25° C., 24 hr",0%
same,% Residual ratio,"Solution stability test; pH 9.0, 25° C., 0 hr",100%
same,% Residual ratio,"Solution stability test; pH 9.0, 25° C., 3 hr",0%
same,% Residual ratio,"Solution stability test; pH 9.0, 25° C., 6 hr",0%
same,% Residual ratio,"Solution stability test; pH 9.0, 25° C., 9 hr",0%
same,% Residual ratio,"Solution stability test; pH 9.0, 25° C., 12 hr",0%
same,% Residual ratio,"Solution stability test; pH 9.0, 25° C., 24 hr",0%
same,Solubility in pH 2.0 buffer solution,Solubility test,2.8 mg/mL
same,% Measurement value of test compound (decrease rate),[3]; incubation time 0 min,100%
same,% Measurement value of test compound (decrease rate),[3]; incubation time 5 min,0%
same,% Measurement value of test compound (decrease rate),[3]; incubation time 10 min,0%
same,% Measurement value of test compound (decrease rate),[3]; incubation time 30 min,0%
same,% Measurement value of test compound (decrease rate),[3]; incubation time 60 min,0%
same,% Measurement value of test compound (decrease rate),[3]; incubation time 120 min,0%
same,% Measurement value of test compound (decrease rate),"[4]; Phosphate buffer solution (pH 7.4), incubation time 120 min",0%
same,% Measurement value of test compound (decrease rate),"[4]; phosphate buffer solution (pH 7.4), incubation time 0 min",100%
same,% Measurement value of test compound (decrease rate),"[4]; phosphate buffer solution (pH 7.4), incubation time 5 min",0%
same,% Measurement value of test compound (decrease rate),"[4]; phosphate buffer solution (pH 7.4), incubation time 10 min",0%
same,% Measurement value of test compound (decrease rate),"[4]; phosphate buffer solution (pH 7.4), incubation time 30 min",0%
same,% Measurement value of test compound (decrease rate),"[4]; phosphate buffer solution (pH 7.4), incubation time 60 min",0%
